Results taken from patent US8304416B2, “Chromenone derivatives” (Merck Patent GmbH, priority 2003, dated 2012).

Tests used:
Format in all cases: biochemical
PKB = PKB (Homo sapiens, UniProt P31749); experiment: Inhibition of PKB
Tie2 = Tie2 (Homo sapiens, UniProt Q02763); experiment: Inhibition of Tie2
RAF = experiment: Inhibition of RAF

Sequence of PKB (P31749 whole entry, species assumed): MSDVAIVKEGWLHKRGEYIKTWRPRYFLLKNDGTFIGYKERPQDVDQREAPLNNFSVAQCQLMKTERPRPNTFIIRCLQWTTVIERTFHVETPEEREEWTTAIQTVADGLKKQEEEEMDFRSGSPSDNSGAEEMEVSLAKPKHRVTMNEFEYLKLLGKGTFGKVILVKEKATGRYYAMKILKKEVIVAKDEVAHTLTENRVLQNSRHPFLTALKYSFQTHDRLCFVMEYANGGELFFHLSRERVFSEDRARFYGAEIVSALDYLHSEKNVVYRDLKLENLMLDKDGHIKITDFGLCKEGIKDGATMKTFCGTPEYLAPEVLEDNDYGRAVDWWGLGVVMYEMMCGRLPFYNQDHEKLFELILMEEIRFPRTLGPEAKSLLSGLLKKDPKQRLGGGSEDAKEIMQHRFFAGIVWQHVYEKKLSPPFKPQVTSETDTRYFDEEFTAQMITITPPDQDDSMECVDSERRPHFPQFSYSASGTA
Sequence of Tie2 (Q02763 23-1124, species assumed): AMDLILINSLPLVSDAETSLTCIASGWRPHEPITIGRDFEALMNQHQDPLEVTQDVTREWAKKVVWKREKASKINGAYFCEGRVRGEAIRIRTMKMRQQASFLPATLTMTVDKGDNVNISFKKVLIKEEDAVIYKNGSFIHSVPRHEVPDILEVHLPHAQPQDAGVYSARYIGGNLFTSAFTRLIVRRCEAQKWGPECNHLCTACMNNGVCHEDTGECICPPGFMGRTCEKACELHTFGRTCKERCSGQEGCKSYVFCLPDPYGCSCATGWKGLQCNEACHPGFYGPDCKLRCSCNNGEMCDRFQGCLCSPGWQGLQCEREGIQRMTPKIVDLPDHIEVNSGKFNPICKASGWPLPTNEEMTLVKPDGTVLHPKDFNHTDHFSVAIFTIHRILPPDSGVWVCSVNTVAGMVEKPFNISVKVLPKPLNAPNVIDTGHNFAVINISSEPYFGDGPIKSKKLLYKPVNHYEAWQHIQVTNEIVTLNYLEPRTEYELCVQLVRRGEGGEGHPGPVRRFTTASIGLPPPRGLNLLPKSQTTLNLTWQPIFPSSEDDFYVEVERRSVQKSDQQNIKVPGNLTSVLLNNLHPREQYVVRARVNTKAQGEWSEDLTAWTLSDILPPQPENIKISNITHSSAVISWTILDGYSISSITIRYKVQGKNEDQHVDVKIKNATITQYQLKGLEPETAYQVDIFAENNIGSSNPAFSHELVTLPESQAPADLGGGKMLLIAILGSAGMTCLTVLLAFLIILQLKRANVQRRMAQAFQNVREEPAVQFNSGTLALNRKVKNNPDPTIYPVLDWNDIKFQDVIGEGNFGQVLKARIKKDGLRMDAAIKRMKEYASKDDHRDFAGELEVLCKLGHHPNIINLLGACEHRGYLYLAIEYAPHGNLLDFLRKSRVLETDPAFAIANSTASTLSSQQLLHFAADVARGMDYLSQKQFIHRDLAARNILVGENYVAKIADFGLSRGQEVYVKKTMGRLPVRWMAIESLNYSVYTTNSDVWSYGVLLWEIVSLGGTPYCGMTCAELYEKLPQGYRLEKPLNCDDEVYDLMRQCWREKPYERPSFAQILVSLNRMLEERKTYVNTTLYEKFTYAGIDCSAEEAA

Structure (SMILES) | IC50 (PKB) [µM] | IC50 (Tie2) [µM] | IC50 (RAF) [nM]
O=C(c1cc(=O)c2cc(O)ccc2o1)c1ncc(Cl)nc1Cl | 9.4 | > 10 | > 1000
O=C(c1ccccn1)c1cc(=O)c2cc(O)ccc2o1 | > 10 | > 10 | > 1000
O=C(c1cc(=O)c2cc(O)ccc2o1)c1nc2ccccc2s1 | > 10 | > 10 | > 1000
Cn1ccnc1C(=O)c1cc(=O)c2cc(O)ccc2o1 | > 10 | > 10 | > 1000
Cn1ccnc1C(=O)c1cc(=O)c2c(O)cc(O)cc2o1 | > 10 | > 10 | > 1000
O=C(c1ccccn1)c1cc(=O)c2c(O)cc(O)cc2o1 | > 10 | > 10 | > 1000
